# Laboratory results: patent US8586608B2, “Quinazoline derivatives and pharmaceutical compositions containing them” (Boehringer Ingelheim Pharma GmbH & Co. KG, priority 2000, dated 2013)
# pIC50: −log10 of the molar value.
# Tested on: not given
# Assay: not given
# Details: not given
row,SMILES,melting point
1,"CN(CC=CC(=O)Nc1cc2c(Nc3ccc(F)c(Cl)c3)ncnc2cc1OC1CCCC1)C[C@H]1CCCO1 [Example 1 (26), 4-[(3-chloro-4-fluorophenyl)amino]-6-[(4-{(R)—N-[(tetrahydrofuran-2-yl)methyl]-N-methylamino}-1-oxo-2-buten-1-yl)amino]-7-cyclopentyloxyquinazoline]",117 to 121 °C
2,"COCCN(CC=CC(=O)Nc1cc2c(Nc3ccc(F)c(Cl)c3)ncnc2cc1OCC1CCOCC1)CCOC [Example 1 (30), 4-[(3-chloro-4-fluorophenyl)amino]-6-({4-[N,N-bis(2-methoxyethyl)amino]-1-oxo-2-buten-1-yl}amino)-7-[(tetrahydropyran-4-yl)methoxy]quinazoline]",100 to 102 °C
3,"CCN(C)CC=CC(=O)Nc1cc2c(Nc3ccc(F)c(Cl)c3)ncnc2cc1O[C@H]1CCOC1 [1 (33), 4-[(3-chloro-4-fluorophenyl)amino]-6-{[4-(N-ethyl-N-methylamino)-1-oxo-2-buten-1-yl]amino}-7-[(s)-(tetrahydrofuran-3-yl)oxy]quinazoline]",154 to 157 °C
4,"CN(CC=CC(=O)Nc1cc2c(Nc3ccc(F)c(Cl)c3)ncnc2cc1OCC1CC1)C[C@H]1CCCO1 [Example 1 (19), 4-[(3-chloro-4-fluorophenyl)amino]-6-[(4-{(R)—N-[(tetrahydrofuran-2-yl)methyl]-N-methylamino}-1-oxo-2-buten-1-yl)amino]-7-cyclopropylmethoxyquinazoline]",149 to 153 °C
5,"CN(C)CC=CC(=O)Nc1cc2c(Nc3ccc(F)c(Cl)c3)ncnc2cc1OC[C@H]1CCCO1 [Example 1 (31), 4-[(3-chloro-4-fluorophenyl)amino]-6-{[4-(N,N-dimethylamino)-1-oxo-2-buten-1-yl]amino}-7-[(R)-(tetrahydrofuran-2-yl)methoxy]quinazoline]",110 to 112 °C

# Now from value to compound:
row,melting point,SMILES
1,174 °C,"O=C(C=CCN1CCOCC1)Nc1cc2c(Nc3ccc(F)c(Cl)c3)ncnc2cc1OCC1CCOCC1 [Example 1 (29), 4-[(3-chloro-4-fluorophenyl)amino]-6-{[4-(morpholin-4-yl)-1-oxo-2-buten-1-yl]amino}-7-[(tetrahydropyran-4-yl)methoxy]quinazoline]"
2,184 to 185 °C,"O=C(C=CCN1CCOCC1)Nc1cc2c(Nc3ccc(F)c(Cl)c3)ncnc2cc1O[C@H]1CCOC1 [Example 1 (35), 4-[(3-chloro-4-fluorophenyl)amino]-6-{[4-(morpholin-4-yl)-1-oxo-2-buten-1-yl]amino}-7-[(s)-(tetrahydrofuran-3-yl)oxy]quinazoline]"
3,140 °C,"CN(CC=CC(=O)Nc1cc2c(Nc3ccc(F)c(Cl)c3)ncnc2cc1OC1CCCC1)C1CC1 [1 (22), 4-[(3-chloro-4-fluorophenyl)amino]-6-{[4-(N-cyclopropyl-N-methylamino)-1-oxo-2-buten-1-yl]amino}-7-cyclopentyloxyquinazoline]"
4,141 °C,"CN(CC=CC(=O)Nc1cc2c(Nc3ccc(F)c(Cl)c3)ncnc2cc1OCC1CC1)CC1CCOCC1 [Example 1 (24), 4-[(3-chloro-4-fluorophenyl)amino]-6-[(4-{N-[(tetrahydropyran-4-yl)methyl]-N-methylamino}-1-oxo-2-buten-1-yl)amino]-7-cyclopropylmethoxyquinazoline]"

# Biological target: T1, human EGF-receptor kinase (Homo sapiens, UniProt P00533)
# T1 construct: GST; made in house; host or cells: Sf9 insect cells (baculovirus)
# Assay: Inhibition of human EGF-receptor kinase (ELISA, bio-pEY substrate)
# Format: biochemical
# Details: cytoplasmic tyrosine kinase domain (Met664-Ala1186) as GST fusion protein; substrate pEY (4:1)/bio-pEY; 30 minutes at ambient temperature
# Procedure: To do this, the protein was expressed in Sf9 insect cells as a GST fusion protein using the Baculovirus expression system.
# The enzyme activity was measured in the presence or absence of the test compounds in serial dilutions. The polymer pEY (4:1) produced by SIGMA was used as the substrate. Biotinylated pEY (bio-pEY) was added as the tracer substrate. Every 100 μl of reaction solution contained 10 μl of the inhibitor in 50% DMSO, 20 μl of the substrate solution (200 mM HEPES pH 7.4, 50 mM magnesium acetate, 2.5 mg/ml poly(EY), 5 μg/ml bio-pEY) and 20 μl of enzyme preparation. The enzyme reaction was started by the addition of 50 μl of a 100 μM ATP solution in 10 mM magnesium chloride. The dilution of the enzyme preparation was adjusted so that the incorporation of phosphate into the bio-pEY was linear in terms of time and quantity of enzyme. The enzyme preparation was diluted in 20 mM HEPES pH 7.4, 1 mM EDTA, 130 mM common salt, 0.05% Triton X-100, 1 mM DTT and 10% glycerol.
# The enzyme assays were carried out at ambient temperature over a period of 30 minutes and were ended by the addition of 50 μl of a stopping solution (250 mM EDTA in 20 mM HEPES pH 7.4). 100 μl were placed on a streptavidin-coated microtiter plate and incubated for 60 minutes at ambient temperature. Then the plate was washed with 200 μl of a washing solution (50 mM Tris, 0.05% Tween 20). After the addition of 100 μl of a HRPO-labelled anti-PY antibody (PY20H Anti-PTyr:HRP produced by Transduction Laboratories, 250 ng/ml), it was incubated for 60 minutes. Then the microtiter plate was washed three times with 200 μl of washing solution. The samples were then combined with 100 μl of a TMB-peroxidase solution (A:B=1:1, Kirkegaard Perry Laboratories). After 10 minutes, the reaction was stopped. The extinction was measured at OD450nm with an ELISA reader. All data points were measured three times.
# The data were matched by means of an iterative calculation using an analytical program for sigmoidal curves (Graph Pad Prism Version 3.0) with variable Hill pitch.
# T1 sequence (P00533 688-1210): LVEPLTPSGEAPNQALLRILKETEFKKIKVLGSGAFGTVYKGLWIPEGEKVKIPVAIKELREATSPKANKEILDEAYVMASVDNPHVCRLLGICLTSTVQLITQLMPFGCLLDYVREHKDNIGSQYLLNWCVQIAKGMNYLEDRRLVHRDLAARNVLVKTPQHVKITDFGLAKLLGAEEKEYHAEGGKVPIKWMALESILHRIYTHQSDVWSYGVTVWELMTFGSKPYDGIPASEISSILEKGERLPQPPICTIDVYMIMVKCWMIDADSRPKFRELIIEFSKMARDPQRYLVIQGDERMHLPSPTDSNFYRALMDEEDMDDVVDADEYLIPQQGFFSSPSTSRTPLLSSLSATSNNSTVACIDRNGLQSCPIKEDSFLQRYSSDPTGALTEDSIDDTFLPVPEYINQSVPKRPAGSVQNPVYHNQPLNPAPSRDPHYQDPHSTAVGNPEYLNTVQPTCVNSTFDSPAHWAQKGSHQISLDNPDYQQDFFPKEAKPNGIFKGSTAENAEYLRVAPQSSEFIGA
row,SMILES,pIC50
1,"COCCN(CC=CC(=O)Nc1cc2c(N[C@H](C)c3ccccc3)ncnc2cc1OCC1CC1)CCOC [1 (3), 4-[(R)-(1-phenylethyl)amino]-6-{[4-(N,N-bis(2-methoxyethyl)amino)-1-oxo-2-buten-1-yl]amino}-7-cyclopropylmethoxyquinazoline]",8.40
2,"CCN(C)CC=CC(=O)Nc1cc2c(Nc3ccc(F)c(Cl)c3)ncnc2cc1O[C@H]1CCOC1 [1 (33), 4-[(3-chloro-4-fluorophenyl)amino]-6-{[4-(N-ethyl-N-methylamino)-1-oxo-2-buten-1-yl]amino}-7-[(s)-(tetrahydrofuran-3-yl)oxy]quinazoline]",9.30
3,"COCCN(C)CC=CC(=O)Nc1cc2c(N[C@H](C)c3ccccc3)ncnc2cc1OCC1CC1 [1 (5), 4-[(R)-(1-phenylethyl)amino]-6-({4-[N-(2-methoxyethyl)-N-methylamino]-1-oxo-2-buten-1-yl}amino)-7-cyclopropylmethoxyquinazoline]",8.52
4,"COCCN(C)CC=CC(=O)Nc1cc2c(Nc3ccc(F)c(Cl)c3)ncnc2cc1OCC1CC1 [Example 1, [(3-chloro-4-fluorophenyl)amino]-6-({4-[N-(2-methoxyethyl)-N-methylamino]-1-oxo-2-buten-1-yl}amino)-7-cyclopropylmethoxyquinazoline]",9.15
5,"CN(C)CC=CC(=O)Nc1cc2c(Nc3ccc(F)c(Cl)c3)ncnc2cc1OC[C@@H]1CCCO1 [1 (32), 4-[(3-chloro-4-fluorophenyl)amino]-6-{[4-(N,N-dimethylamino)-1-oxo-2-buten-1-yl]amino}-7-[(s)-(tetrahydrofuran-2-yl)methoxy]quinazoline]",9.52

# Further lines, results first:
row,pIC50,SMILES
1,9.22,"CN(C)CC=CC(=O)Nc1cc2c(Nc3ccc(F)c(Cl)c3)ncnc2cc1OC1CCCC1 [1 (2), 4-[(3-chloro-4-fluorophenyl)amino]-6-{[4-(N,N-dimethylamino)-1-oxo-2-buten-1-yl]amino}-7-cyclopentyloxyquinazoline]"
2,9.00,"CN(CC=CC(=O)Nc1cc2c(Nc3ccc(F)c(Cl)c3)ncnc2cc1OC1CCCC1)C1CC1 [1 (22), 4-[(3-chloro-4-fluorophenyl)amino]-6-{[4-(N-cyclopropyl-N-methylamino)-1-oxo-2-buten-1-yl]amino}-7-cyclopentyloxyquinazoline]"
3,9.40,"CC(C)N(C)CC=CC(=O)Nc1cc2c(Nc3ccc(F)c(Cl)c3)ncnc2cc1O[C@H]1CCOC1 [1 (34), 4-[(3-chloro-4-fluorophenyl)amino]-6-{[4-(N-isopropyl-N-methylamino)-1-oxo-2-buten-1-yl]amino}-7-[(s)-(tetrahydrofuran-3-yl)oxy]quinazoline]"
